Test [1] has as its target Cyclin-dependent kinase 5/CDK5 activator 1 (Homo sapiens) (UniProt Q00535+Q15078). Description: Selectivity interaction (Upstate Kinase Profiler service (Millipore)) EUB0000056c CDK5. Format: protein-complex assay. Particulars: at 1 µM.
For test [2], the target named is Serine/threonine-protein kinase PAK 4 (Homo sapiens, UniProt O96013). Kind of test: Selectivity interaction (ProQinase) EUB0000171b PAK4.
In test [3] the target is T1, Ephrin type-B receptor 1 (Homo sapiens) (UniProt P54762).
T1 sequence (whole entry): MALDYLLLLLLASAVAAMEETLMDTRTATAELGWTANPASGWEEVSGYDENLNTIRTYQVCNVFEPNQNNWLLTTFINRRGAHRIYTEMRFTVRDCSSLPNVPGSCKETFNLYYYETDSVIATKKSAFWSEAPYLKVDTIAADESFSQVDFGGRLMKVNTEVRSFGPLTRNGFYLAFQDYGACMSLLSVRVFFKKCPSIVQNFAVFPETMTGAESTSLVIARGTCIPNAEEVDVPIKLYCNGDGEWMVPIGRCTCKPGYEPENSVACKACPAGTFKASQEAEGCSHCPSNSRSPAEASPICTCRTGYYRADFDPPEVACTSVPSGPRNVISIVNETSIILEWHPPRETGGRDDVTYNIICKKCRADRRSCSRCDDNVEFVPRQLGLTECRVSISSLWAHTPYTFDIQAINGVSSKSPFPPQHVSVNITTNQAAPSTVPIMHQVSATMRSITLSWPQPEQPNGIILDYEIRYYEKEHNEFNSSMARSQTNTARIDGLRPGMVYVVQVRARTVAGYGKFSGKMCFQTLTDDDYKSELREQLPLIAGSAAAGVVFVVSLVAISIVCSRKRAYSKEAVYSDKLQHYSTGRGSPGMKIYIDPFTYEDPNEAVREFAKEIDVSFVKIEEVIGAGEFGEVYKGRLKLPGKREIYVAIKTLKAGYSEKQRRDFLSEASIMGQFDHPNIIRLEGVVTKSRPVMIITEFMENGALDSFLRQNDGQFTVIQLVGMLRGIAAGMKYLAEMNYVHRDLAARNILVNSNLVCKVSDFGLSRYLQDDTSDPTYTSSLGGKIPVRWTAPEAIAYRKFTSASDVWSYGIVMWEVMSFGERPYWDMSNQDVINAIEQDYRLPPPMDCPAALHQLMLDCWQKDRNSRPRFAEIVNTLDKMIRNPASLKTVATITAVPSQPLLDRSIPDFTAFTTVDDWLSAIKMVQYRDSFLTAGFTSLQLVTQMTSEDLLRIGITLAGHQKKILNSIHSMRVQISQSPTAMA
Kind of test: Selectivity interaction (KinomeScan (DiscoverX)) EUB0001079a EPHB1. The conditions noted are these: at 1 µM.

The target in test [4] is BDNF/NT-3 growth factors receptor (Homo sapiens) (UniProt Q16620). Description: Selectivity interaction (Millipore kinase profiler) EUB0000124b NTRK2. Particulars: at 10 µM.
Test [5] has as its system Epidermal growth factor receptor (Homo sapiens), P00533 [UNDEFINED MUTATION]. Description: Selectivity interaction (KinomeScan (DiscoverX)) EUB0001049a EGFR. Particulars: at 1 µM.
In test [6] the target is T2, Dual specificity mitogen-activated protein kinase kinase 3 (Homo sapiens) (UniProt P46734).
T2 sequence (whole entry): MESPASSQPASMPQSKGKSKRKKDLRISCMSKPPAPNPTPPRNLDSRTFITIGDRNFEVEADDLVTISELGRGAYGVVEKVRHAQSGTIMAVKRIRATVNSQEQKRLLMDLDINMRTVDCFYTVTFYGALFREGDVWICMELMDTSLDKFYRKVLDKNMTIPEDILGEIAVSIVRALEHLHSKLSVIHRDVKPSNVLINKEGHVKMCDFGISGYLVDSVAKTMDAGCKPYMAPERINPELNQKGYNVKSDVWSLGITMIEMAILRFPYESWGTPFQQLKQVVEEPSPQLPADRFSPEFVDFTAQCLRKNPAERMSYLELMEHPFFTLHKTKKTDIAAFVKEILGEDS
Kind of test: Selectivity interaction (LanthaScreen Eu Kinase Binding Assay) EUB0001632a MAP2K3. The conditions noted are these: at 10 µM.

For test [7], the target named is T3, Non-receptor tyrosine-protein kinase TNK1 (Homo sapiens) (UniProt Q13470).
T3 sequence (whole entry): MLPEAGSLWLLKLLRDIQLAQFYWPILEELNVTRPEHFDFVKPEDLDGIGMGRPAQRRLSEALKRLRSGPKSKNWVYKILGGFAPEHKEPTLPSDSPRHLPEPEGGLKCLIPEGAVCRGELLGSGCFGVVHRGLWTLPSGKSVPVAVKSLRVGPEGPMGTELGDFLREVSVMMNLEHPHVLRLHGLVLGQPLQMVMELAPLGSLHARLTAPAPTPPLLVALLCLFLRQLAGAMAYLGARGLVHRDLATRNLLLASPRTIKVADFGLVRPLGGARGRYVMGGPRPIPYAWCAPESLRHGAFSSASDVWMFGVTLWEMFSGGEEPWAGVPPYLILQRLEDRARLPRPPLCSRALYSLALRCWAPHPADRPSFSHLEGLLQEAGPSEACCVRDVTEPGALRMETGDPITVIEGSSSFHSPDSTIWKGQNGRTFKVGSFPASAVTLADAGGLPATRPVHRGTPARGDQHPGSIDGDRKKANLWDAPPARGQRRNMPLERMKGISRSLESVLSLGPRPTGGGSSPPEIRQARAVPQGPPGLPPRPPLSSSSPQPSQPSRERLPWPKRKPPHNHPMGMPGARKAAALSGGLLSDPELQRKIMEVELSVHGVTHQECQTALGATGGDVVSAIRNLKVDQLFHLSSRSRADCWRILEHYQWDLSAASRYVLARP
Description: Selectivity interaction (KinomeScan (DiscoverX)) EUB0000229b TNK1. The conditions noted are these: at 10 µM.

Test [8] concerns the target Cyclin-dependent kinase-like 3 (Homo sapiens) (UniProt Q8IVW4). Kind of test: Selectivity interaction (KinomeScan (DiscoverX)) EUB0001619a CDKL3. The conditions noted are these: at 1 µM.

Sequence of Serine/threonine-protein kinase PAK 4 (O96013 whole entry, looked up): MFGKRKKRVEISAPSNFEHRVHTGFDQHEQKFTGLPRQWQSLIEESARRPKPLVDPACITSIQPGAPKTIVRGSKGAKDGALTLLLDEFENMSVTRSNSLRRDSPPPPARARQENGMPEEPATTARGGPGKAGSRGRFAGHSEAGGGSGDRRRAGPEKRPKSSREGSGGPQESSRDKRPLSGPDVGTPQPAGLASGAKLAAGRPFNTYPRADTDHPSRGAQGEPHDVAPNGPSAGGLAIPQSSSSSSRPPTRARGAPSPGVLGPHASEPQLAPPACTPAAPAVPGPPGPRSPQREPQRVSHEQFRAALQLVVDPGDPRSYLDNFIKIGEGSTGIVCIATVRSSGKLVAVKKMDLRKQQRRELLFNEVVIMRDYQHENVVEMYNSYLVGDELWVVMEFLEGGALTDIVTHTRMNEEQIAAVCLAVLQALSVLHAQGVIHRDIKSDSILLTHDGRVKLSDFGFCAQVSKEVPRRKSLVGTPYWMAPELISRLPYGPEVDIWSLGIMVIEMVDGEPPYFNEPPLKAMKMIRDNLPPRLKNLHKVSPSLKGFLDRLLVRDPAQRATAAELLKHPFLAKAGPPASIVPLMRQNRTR
Sequence of BDNF/NT-3 growth factors receptor (Homo sapiens) (Q16620 32-822 limits assumed): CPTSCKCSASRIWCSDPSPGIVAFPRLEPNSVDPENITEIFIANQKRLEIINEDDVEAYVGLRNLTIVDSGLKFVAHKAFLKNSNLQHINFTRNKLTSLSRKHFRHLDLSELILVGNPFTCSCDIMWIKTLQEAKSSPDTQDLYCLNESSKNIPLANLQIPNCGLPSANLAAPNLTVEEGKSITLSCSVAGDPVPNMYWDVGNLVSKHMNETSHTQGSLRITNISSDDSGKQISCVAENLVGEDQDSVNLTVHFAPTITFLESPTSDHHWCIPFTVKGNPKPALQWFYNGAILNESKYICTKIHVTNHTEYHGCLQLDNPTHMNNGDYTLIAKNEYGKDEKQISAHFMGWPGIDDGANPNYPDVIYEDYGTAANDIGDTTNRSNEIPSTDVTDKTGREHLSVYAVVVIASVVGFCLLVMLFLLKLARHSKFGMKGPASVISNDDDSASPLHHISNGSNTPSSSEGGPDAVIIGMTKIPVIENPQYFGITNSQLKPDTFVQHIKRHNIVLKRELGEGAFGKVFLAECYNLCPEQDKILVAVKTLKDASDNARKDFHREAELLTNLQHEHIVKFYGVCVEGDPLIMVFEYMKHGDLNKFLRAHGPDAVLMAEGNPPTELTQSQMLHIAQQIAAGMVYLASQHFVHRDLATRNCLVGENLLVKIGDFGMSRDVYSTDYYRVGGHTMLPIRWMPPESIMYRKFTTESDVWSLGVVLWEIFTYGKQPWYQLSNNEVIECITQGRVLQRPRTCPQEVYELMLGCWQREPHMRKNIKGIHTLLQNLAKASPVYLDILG
Sequence of Cyclin-dependent kinase 5/CDK5 activator 1 (Homo sapiens) (Q00535 whole entry): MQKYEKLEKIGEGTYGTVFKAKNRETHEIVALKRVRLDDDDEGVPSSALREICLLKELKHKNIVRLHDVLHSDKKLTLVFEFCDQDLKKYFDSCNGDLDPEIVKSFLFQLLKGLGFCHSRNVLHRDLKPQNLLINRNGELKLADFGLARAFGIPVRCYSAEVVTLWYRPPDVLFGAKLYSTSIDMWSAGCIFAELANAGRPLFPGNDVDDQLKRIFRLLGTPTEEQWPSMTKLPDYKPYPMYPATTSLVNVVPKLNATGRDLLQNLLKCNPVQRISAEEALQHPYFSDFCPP
Sequence of Cyclin-dependent kinase 5/CDK5 activator 1 (Homo sapiens) (Q15078 99-307 partner limits assumed): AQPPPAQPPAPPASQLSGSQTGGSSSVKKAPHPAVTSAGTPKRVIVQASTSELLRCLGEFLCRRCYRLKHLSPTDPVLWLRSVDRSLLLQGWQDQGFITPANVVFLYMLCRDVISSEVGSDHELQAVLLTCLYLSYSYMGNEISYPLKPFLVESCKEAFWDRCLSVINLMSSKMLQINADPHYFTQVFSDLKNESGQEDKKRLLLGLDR
Sequence of Epidermal growth factor receptor (Homo sapiens), P00533 [UNDEFINED MUTATION] (P00533 whole entry, looked up, change not shown): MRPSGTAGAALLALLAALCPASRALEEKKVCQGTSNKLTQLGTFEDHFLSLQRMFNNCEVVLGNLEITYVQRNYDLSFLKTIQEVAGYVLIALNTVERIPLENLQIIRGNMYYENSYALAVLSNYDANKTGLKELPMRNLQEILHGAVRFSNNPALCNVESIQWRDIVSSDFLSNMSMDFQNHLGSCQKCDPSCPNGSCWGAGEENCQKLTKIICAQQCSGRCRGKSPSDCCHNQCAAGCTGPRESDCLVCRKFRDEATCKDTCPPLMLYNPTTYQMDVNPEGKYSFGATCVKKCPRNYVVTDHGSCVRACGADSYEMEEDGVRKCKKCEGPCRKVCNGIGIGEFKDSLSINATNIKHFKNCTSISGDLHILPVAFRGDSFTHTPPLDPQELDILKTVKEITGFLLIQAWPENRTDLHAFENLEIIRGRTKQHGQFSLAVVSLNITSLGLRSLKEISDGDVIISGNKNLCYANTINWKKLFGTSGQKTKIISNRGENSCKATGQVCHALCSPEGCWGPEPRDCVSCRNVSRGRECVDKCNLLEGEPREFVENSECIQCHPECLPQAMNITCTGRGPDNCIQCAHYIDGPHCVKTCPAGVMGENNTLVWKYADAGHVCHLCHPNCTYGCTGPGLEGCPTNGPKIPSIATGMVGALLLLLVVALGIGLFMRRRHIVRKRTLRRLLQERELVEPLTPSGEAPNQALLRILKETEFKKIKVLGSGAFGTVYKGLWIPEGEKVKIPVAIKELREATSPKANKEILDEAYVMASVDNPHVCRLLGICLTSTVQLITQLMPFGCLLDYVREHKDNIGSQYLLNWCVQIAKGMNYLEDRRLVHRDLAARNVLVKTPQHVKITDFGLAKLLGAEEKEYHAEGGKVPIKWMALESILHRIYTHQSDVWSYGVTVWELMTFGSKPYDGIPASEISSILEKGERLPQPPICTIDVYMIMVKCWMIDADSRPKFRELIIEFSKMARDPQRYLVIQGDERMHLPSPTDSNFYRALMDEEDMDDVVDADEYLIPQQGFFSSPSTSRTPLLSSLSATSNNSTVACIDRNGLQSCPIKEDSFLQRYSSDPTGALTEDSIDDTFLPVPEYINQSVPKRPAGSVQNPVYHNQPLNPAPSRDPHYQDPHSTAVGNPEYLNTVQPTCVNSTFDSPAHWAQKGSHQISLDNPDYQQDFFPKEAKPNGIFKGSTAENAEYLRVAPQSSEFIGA
Sequence of Cyclin-dependent kinase-like 3 (Homo sapiens) (Q8IVW4 whole entry, looked up): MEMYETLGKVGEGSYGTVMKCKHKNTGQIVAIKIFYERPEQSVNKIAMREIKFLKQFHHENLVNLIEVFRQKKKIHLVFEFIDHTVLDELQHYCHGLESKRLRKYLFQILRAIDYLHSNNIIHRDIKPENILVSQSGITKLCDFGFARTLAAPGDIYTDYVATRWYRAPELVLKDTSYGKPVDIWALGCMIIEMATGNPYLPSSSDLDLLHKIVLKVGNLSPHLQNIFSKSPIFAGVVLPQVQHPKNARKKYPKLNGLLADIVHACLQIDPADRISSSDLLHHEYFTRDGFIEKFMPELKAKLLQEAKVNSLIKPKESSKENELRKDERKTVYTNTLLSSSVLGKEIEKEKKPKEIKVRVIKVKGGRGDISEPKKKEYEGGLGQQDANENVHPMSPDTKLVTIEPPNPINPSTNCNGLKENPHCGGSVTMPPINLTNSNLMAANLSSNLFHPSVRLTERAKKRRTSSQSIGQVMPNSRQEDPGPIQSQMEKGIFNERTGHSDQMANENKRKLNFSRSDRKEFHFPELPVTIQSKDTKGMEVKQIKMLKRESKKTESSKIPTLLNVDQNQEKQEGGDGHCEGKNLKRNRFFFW

For the molecule `Cc1ccc(-c2ccc3c(ccc4sc5c(c43)NC[C@@H](C)NC5=O)n2)cn1`, the % of inhibition in test [1] is 62%.

`C=CC(=O)Nc1cccc(C(=O)Nc2ccc(Nc3cc(-c4[nH]c(SC)nc4C)ccn3)cc2)c1`: the results for the % of control in test [2] (at 1 µM) and in test [2] (at 5 µM) were 92% and 76%, respectively.

As for `Nc1cnc(N2CCc3cc(S(=O)(=O)Nc4c(F)cc(Cl)cc4F)cc(N4CCCC4=O)c32)nc1` [TP-020n], the % of control in test [3] came to 92%. Regarding `CC(=O)Nc1cccc(-n2c(=O)n(C3CC3)c(=O)c3c(Nc4ccc(I)cc4F)n(C)c(=O)c(C)c32)c1`, the % of control in test [4] stood at 120%. Take `COc1cc(Nc2nc(C)cc(-c3cnn4nc(OC)ccc34)n2)cc(C(F)(F)F)c1`: in test [5], the % of control was 100%.

For `Cn1cc(-n2cnc3c(NCc4nc5cc(Cl)c(Cl)cc5[nH]4)nc(N4CCOCC4)nc32)cn1`, in test [6], the % of inhibition is -63.6%. Regarding `COc1cc(N(C)c2ccnc3ccc(C(F)(F)F)cc23)cc(OC)c1OC`, the % binding in test [7] turned out to be 63%. In test [8], `N#Cc1cccc(-c2c[nH]c3ncnc(N4CCOCC4)c23)c1` gave a % of control of 100%.
